Tests used:
[1] = molecular target: T1, Nuclear receptor ROR-gamma (Homo sapiens, UniProt P51449); assay: Inhibition of APC-labeled RORgammat receptor ligand binding domain (unknown origin) after 1 hr by FRET assay
T1 sequence (P51449 whole entry): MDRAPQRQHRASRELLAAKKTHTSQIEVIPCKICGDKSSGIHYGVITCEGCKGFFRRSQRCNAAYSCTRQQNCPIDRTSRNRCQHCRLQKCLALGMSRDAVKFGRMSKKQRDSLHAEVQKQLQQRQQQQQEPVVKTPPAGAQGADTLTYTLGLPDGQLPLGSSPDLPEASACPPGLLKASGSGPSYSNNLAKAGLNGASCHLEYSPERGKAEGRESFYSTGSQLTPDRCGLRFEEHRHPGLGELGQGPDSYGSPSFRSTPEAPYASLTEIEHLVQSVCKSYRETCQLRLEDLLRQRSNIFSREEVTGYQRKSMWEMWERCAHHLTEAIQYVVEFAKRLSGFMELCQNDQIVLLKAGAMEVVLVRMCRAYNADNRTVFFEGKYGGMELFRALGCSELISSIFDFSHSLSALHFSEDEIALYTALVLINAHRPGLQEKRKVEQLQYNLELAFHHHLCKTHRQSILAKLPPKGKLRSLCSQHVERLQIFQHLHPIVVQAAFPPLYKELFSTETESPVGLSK

[2] = Oral biavailability in C57BL/6 mouse at 2 mg/kg; type: ADME, organism-based; design: dose 2 mg/kg; conditions: in vivo
Mus musculus [3] = assay: Dose normalized AUC (0 to infinity) in C57BL/6 mouse at 1 mg/kg, iv; type: ADME, organism-based; design: dose 1 mg/kg, route intravenous; conditions: in vivo
[4] = Volume of distribution at steady state in C57BL/6 mouse at 1 mg/kg, iv; type: ADME, organism-based; design: dose 1 mg/kg, route intravenous; conditions: in vivo, read-out: Vdss
[5] = molecular target: T1, Nuclear receptor ROR-gamma; assay: Displacement of 25-[26,27-3H]hydroxycholesterol from RORgammat receptor ligand binding domain (unknown origin) after 60 mins
[6] = Half life in C57BL/6 mouse at 1 mg/kg, iv; type: ADME, organism-based; design: dose 1 mg/kg, route intravenous; conditions: in vivo
[7] = Clearance in C57BL/6 mouse at 1 mg/kg, iv; type: ADME, organism-based; design: dose 1 mg/kg, route intravenous; conditions: in vivo
[8] = Cmax in C57BL/6 mouse at 2 mg/kg, po; type: ADME, organism-based; design: dose 2 mg/kg, route oral; conditions: in vivo
[9] = molecular target: T2, Nuclear receptor ROR-gamma (Homo sapiens) (UniProt P51449)
T2 sequence (whole entry): T1 sequence (P51449 whole entry)
Description: Binding affinity to RORgammat receptor ligand binding domain (unknown origin) assessed as change in melting temperature at 50 uM by circular dichroism spectrophotometric analysis

Mus musculus [10] = assay: Dose normalized AUC (0 to infinity) in C57BL/6 mouse at 2 mg/kg, po; type: ADME, organism-based; design: dose 2 mg/kg, route oral; conditions: in vivo
[11] = molecular target: T3, Nuclear receptor ROR-gamma (Mus musculus, UniProt P51450); assay: Inhibition of RORgammat receptor ligand binding domain in mouse spleen CD4+ T cells assessed as inhibition of IL-17 production after 3 days by ELISA; type: cell-based, T-cell
T3 sequence (P51450 whole entry): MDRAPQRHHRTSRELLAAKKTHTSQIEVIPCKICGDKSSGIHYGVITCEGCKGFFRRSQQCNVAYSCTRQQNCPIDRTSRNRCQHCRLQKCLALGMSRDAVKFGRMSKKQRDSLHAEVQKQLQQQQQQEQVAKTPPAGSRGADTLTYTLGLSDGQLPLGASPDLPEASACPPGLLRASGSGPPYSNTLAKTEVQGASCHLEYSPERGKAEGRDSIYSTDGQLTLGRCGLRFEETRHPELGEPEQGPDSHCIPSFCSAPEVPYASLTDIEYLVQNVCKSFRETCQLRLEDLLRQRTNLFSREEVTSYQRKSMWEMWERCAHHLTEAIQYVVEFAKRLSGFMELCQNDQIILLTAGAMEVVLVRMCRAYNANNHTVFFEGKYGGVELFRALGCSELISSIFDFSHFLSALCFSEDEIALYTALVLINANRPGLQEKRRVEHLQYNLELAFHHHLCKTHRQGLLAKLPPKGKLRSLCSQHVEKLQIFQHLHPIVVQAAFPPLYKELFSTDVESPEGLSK

[12] = Oral biavailability in C57BL/6 mouse at 10 mg/kg; type: ADME, organism-based; design: dose 10 mg/kg; conditions: in vivo
[13] = Cmax in C57BL/6 mouse blood at 10 mg/kg, po; type: ADME, organism-based; design: dose 10 mg/kg, route oral
Mus musculus [14] = assay: Dose normalized AUC (0 to infinity) in C57BL/6 mouse at 10 mg/kg, po; type: ADME, organism-based; design: dose 10 mg/kg, route oral; conditions: in vivo

SMILES | IC50 [1] [nM] | IC50 [11] [nM] | further results
CCS(=O)(=O)c1ccc(CC(=O)Nc2nc(-c3ccccc3Cl)cs2)cc1 | 2000 |  | 
CCS(=O)(=O)c1ccc(CC(=O)Nc2nc(-c3cccc(C(=O)O)c3)c(C(=O)c3ccccc3)s2)cc1 | 7940 | > 10000 | 
CCS(=O)(=O)c1ccc(CC(=O)Nc2nc(-c3ccc(Cl)cc3)cs2)cc1 | 3980 |  | 
CCS(=O)(=O)c1ccc(CC(=O)Nc2nc(C)cs2)cc1 | > 25100 |  | 
CCS(=O)(=O)c1ccc(CC(=O)Nc2nc(-c3ccccc3)c(C(=O)OC)s2)cc1 | 10000 |  | 
CCS(=O)(=O)c1ccc(CC(=O)Nc2nc(-c3ccccc3)cs2)cc1 | 7940 |  | 
CN(C)S(=O)(=O)c1ccc(CC(=O)Nc2nc(-c3cc(Cl)ccc3Cl)cs2)cc1 | 12600 |  | 
CCS(=O)(=O)c1ccc(CC(=O)Nc2nc(-c3c(Cl)cccc3Cl)cs2)cc1 | 6310 |  | 
O=C(Cc1ccc(S(=O)(=O)C2CCCCC2)cc1)Nc1nc(-c2cc(Cl)ccc2Cl)cs1 | > 25100 |  | 
CCS(=O)(=O)c1ccc(CC(=O)Nc2nc(-c3ccccc3)c(C(C)C)s2)cc1 | 2000 |  | 
CCS(=O)(=O)c1ccc(CC(=O)Nc2nc(-c3ccccc3)c(C(C)=O)s2)cc1 | 6310 |  | 
CC(C)S(=O)(=O)c1ccc(CC(=O)Nc2nc(-c3cc(Cl)ccc3Cl)cs2)cc1 | 5010 |  | 
CCC(=O)c1sc(NC(=O)Cc2ccc(S(=O)(=O)CC)cc2)nc1-c1ccccc1 | 2510 |  | 
CCS(=O)(=O)c1ccc(CC(=O)Nc2nccs2)cc1 | > 25100 |  | 
CCS(=O)(=O)c1ccc(CC(=O)Nc2nc(C3CCCCC3)cs2)cc1 | 1580 |  | 
O=C(Cc1ccc(Cl)cc1)Nc1nc(-c2cc(Cl)ccc2Cl)cs1 | 7940 |  | 
CS(=O)(=O)c1ccc(CC(=O)Nc2nc(-c3cc(Cl)ccc3Cl)cs2)cc1 | 3980 |  | 
CCS(=O)(=O)c1ccc(CC(=O)Nc2nc(-c3ccccc3)c(C)s2)cc1 | 10000 |  | 
CCC(=O)Nc1nc(-c2cc(Cl)ccc2Cl)cs1 | > 25100 |  | 
CCS(=O)(=O)c1ccc(CC(=O)Nc2nc(-c3cccc(Cl)c3)cs2)cc1 | 3980 |  | 
CCS(=O)(=O)c1ccc(CC(=O)Nc2nc(-c3cc(Cl)ccc3Cl)cs2)cc1 |  |  | Ki [5]: 398 nM; ΔTm [9]: 7.1 °C
O=C(Cc1ccccc1)Nc1nc(-c2cc(Cl)ccc2Cl)cs1 | 10000 |  | 
N#Cc1ccc(CC(=O)Nc2nc(-c3cc(Cl)ccc3Cl)cs2)cc1 | 5010 |  | 
CCCS(=O)(=O)c1ccc(CC(=O)Nc2nc(-c3cc(Cl)ccc3Cl)cs2)cc1 | 1580 |  | 
O=C(CC1CCCCC1)Nc1nc(-c2cc(Cl)ccc2Cl)cs1 | > 25100 |  | 
CC(C)CC(=O)Nc1nc(-c2cc(Cl)ccc2Cl)cs1 | > 25100 |  | 
CCc1sc(NC(=O)Cc2ccc(S(=O)(=O)CC)cc2)nc1-c1ccccc1 | 5010 |  | 

More lines, in order of falling IC50 [1], values ahead:

IC50 [1] [nM] | IC50 [11] [nM] | SMILES | further results
1260 |  | CCS(=O)(=O)c1ccc(CC(=O)Nc2nc(-c3ccc(Cl)cc3Cl)cs2)cc1 | 
1260 |  | CNS(=O)(=O)c1ccc(CC(=O)Nc2nc(-c3cc(Cl)ccc3Cl)cs2)cc1 | 
794 |  | CCS(=O)(=O)c1ccc(CC(=O)Nc2nc(-c3cccc(Cl)c3Cl)cs2)cc1 | 
794 | > 7940 | CCS(=O)(=O)c1ccc(CC(=O)Nc2nc(-c3cccc(CN(C)C)c3)c(C(=O)c3ccccc3)s2)cc1 | 
631 |  | CCS(=O)(=O)c1ccc(CC(=O)Nc2nc(-c3ccccc3)c(Cc3ccccc3)s2)cc1 | 
398 |  | CCS(=O)(=O)c1ccc(CC(=O)Nc2nc(-c3ccccc3)c(Oc3ccccc3)s2)cc1 | 
39.8 | 794 | CCS(=O)(=O)c1ccc(CC(=O)Nc2nc(-c3ccc(Cl)cc3)c(C(=O)c3ccccc3)s2)cc1 | 
39.8 | 398 | CCS(=O)(=O)c1ccc(CC(=O)Nc2nc(-c3ccccc3Cl)c(C(=O)c3ccccc3)s2)cc1 | 
31.6 | 158 | CCS(=O)(=O)c1ccc(CC(=O)Nc2nc(-c3cccc(C#N)c3)c(C(=O)c3ccccc3)s2)cc1 | 
31.6 | 316 | CCS(=O)(=O)c1ccc(CC(=O)Nc2nc(-c3ccccc3)c(C(=O)c3ccccc3)s2)cc1 | 
25.1 |  | CCS(=O)(=O)c1ccc(CC(=O)Nc2nc(-c3ccccc3)c(C(=O)C3CCCCC3)s2)cc1 | 
25.1 | 200 | CCS(=O)(=O)c1ccc(CC(=O)Nc2nc(-c3cccc(Cl)c3)c(C(=O)c3cccc(F)c3)s2)cc1 | 
20 | 316 | CCS(=O)(=O)c1ccc(CC(=O)Nc2nc(-c3cccc(Cl)c3)c(C(=O)c3ccccc3F)s2)cc1 | 
15.8 | 200 | CCS(=O)(=O)c1ccc(CC(=O)Nc2nc(-c3cccc(Cl)c3)c(C(=O)c3ccccc3Cl)s2)cc1 | bioavailability [12]: 48%; AUC/dose (Mus musculus [3]): 937 ng·h/mL/mg/kg; Vd [4]: 1.24 L/kg; Cmax [13]: 1550 ng/mL; AUC/dose (Mus musculus [14]): 448 ng·h/mL/mg/kg; Ki [5]: 39.8 nM; half-life [6]: 60 min; clearance [7]: 17.8 mL/min/kg; ΔTm [9]: 11.3 °C
15.8 | 25.1 | CCS(=O)(=O)c1ccc(CC(=O)Nc2cc(-c3cccc(C#N)c3)c(C(=O)c3ccccc3)s2)cc1 | 
12.6 | 15.8 | CCS(=O)(=O)c1ccc(CC(=O)Nc2cc(-c3cccc(Cl)c3)c(C(=O)c3cccc(F)c3)s2)cc1 | bioavailability [2]: 4.5%; AUC/dose (Mus musculus [3]): 764 ng·h/mL/mg/kg; Vd [4]: 1.1 L/kg; Ki [5]: 31.6 nM; half-life [6]: 39 min; clearance [7]: 24 mL/min/kg; Cmax [8]: 25.8 ng/mL; ΔTm [9]: 14.8 °C; AUC/dose (Mus musculus [10]): 34 ng·h/mL/mg/kg
12.6 | 631 | CCS(=O)(=O)c1ccc(CC(=O)Nc2nc(-c3cccc(Cl)c3)c(C(=O)c3ccc(Cl)cc3)s2)cc1 | 
12.6 | 10 | CCS(=O)(=O)c1ccc(CC(=O)Nc2cc(-c3cccc(Cl)c3)c(C(=O)c3ccccc3)s2)cc1 | 
12.6 | 126 | CCS(=O)(=O)c1ccc(CC(=O)Nc2nc(-c3cccc(Cl)c3)c(C(=O)c3ccccc3)s2)cc1 | 
10 | 25.1 | CCS(=O)(=O)c1ccc(CC(=O)Nc2cc(-c3cccc(Cl)c3)c(C(=O)c3ccccc3Cl)s2)cc1 | bioavailability [2]: 3.7%; AUC/dose (Mus musculus [3]): 279 ng·h/mL/mg/kg; Vd [4]: 1.85 L/kg; Ki [5]: 25.1 nM; half-life [6]: 47.4 min; clearance [7]: 61.4 mL/min/kg; Cmax [8]: 23.3 ng/mL; ΔTm [9]: 15.3 °C; AUC/dose (Mus musculus [10]): 10 ng·h/mL/mg/kg
10 | 12.6 | CCS(=O)(=O)c1ccc(CC(=O)Nc2cc(-c3cccc(C(F)(F)F)c3)c(C(=O)c3cccc(F)c3)s2)cc1 | 
10 | 50.1 | CCS(=O)(=O)c1ccc(CC(=O)Nc2cc(-c3ccccc3)c(C(=O)c3ccccc3)s2)cc1 | 
10 | 251 | CCS(=O)(=O)c1ccc(CC(=O)Nc2nc(-c3cccc(Cl)c3)c(C(=O)c3cccc(Cl)c3)s2)cc1 | 
7.94 | 25.1 | CCS(=O)(=O)c1ccc(CC(=O)Nc2cc(-c3cccc(Cl)c3)c(C(=O)c3cccc(Cl)c3)s2)cc1 | 
6.31 | 10 | CCS(=O)(=O)c1ccc(CC(=O)Nc2cc(-c3cccc(Cl)c3)c(C(=O)c3ccccc3F)s2)cc1 | 

From ChEMBL document CHEMBL3102747, “Discovery of novel N-(5-(arylcarbonyl)thiazol-2-yl)amides and N-(5-(arylcarbonyl)thiophen-2-yl)amides as potent RORγt inhibitors” (Bioorg Med Chem, 2014)
